Measured values: patent publication US20080227222A1, “Method for the detection of target molecules by fluorescence polarization using peptide mimics” (priority 2007, published 2008)

How the values were obtained:
[1] = tested on: anti-cortisol antibody (ACA); experiment: Competition ELISA: increasing cortisol against plate-coated phagotope for anti-cortisol antibody; format: binding; conditions: increasing amounts of cortisol, constant phage, FIG. 3
Experimental: Plates were coated with phagotopes and blocked as for the direct ELISA. […] Increasing amounts of cortisol was then added to 100 μl of specific antibody in 1% PBS-polyoxyethylene (20) sorbitan monolaurate. 100 μl replicates (4-6) of antibody/cortisol inhibitor was then left overnight.
The plates were washed and developed as for the direct ELISA. The results of these studies are illustrated in FIG. 3.

[2] = tested on: anti-cortisol antibody (ACA); experiment: ELISA binding of phagotopes to anti-cortisol antibody (biopanning screen); conditions: phagotope expressing peptide, FIG. 2
Experimental: Identification of reactive phagotopes was conducted by either direct, where the phagotopes are coated directly to the plate, or capture ELISA, were the phagotopes are tethered to the plate via the selection antibody. The two ELISA methods were employed because direct ELISA identifies highly reactive phagotopes that are likely to contain a strong motif, whereas the capture ELISA is more sensitive, therefore also selecting for phagotopes involving only weak interactions. For the direct ELISA, phage preparations were diluted in sterile PBS and duplicate samples of 100 μl/well were added to a 96-well microtitre plate. Plates were left overnight at 4° C., blocked for 2 hours at room temperature with 1% skimmed milk powder and 0.05% Tween 20 in PBS ph 7.4 and washed three times in Tris-buffered saline, pH 7.4, containing 0.05% polyoxyethylene (20) sorbitan monolaurate (TWEEN 20™). 100 μl of specific antibody diluted to 1 μg/ml in 1% PBS-polyoxyethylene (20) sorbitan monolaurate were added and left overnight. […] Absorbances were read at 415 nm after 30 minutes and 60 minutes. […]

[3] = tested on: anti-gamma-interferon antibody; experiment: Competition ELISA: increasing gamma-interferon against constant phage containing peptide mimic; format: binding; conditions: constant phage containing the mimic, detected with anti-phage antibody
Experimental: In order to identify peptide mimics, the procedure for described in Example 1 was followed. FA42™ anti-Gamma-interferon monoclonal antibody (Cellestis, Inc, Valencia, Calif.) was used in the screening of peptide mimics.
Identification of epitope sites that the peptides represented were then determined by comparing the peptide sequences with the known γ-interferon sequence. The identified peptides were then evaluated by the ability of gamma-interferon to inhibit binding of anti-γ-interferon antibody in ELISA. The results of this study is illustrated in FIG. 3 for peptide IFN-28. […] Phage binding was identified, in this study, using a specific anti-phage antibody.

[4] = tested on: anti-γ-interferon antibody (FA42); experiment: Competition of fluorescently tagged peptides with IFN-41 expressing phage for binding to FA42; conditions: fluorescently tagged peptide against phage
Experimental: Further analysis of the peptide mimics sought to ascertain whether these peptides operated in the same manner as they do when expressed on the surface of the phage. In order to ascertain if these peptides operated in the same manner as they do when expressed on the surface of the phage, a competition assay was performed. In this assay, the newly created peptides were used to compete with the peptides on the surface of the phage for binding to FA42.
A gradient of inhibition of IFN-41 expressing phage binding by the two peptides is shown. The control peptide (ACA-20) is a mimic of cortisol. […] Additionally, FIG. 5 illustrates gradient inhibition of IFN-41 and IFN-19 using anti-gamma-interferon antibody.

Substance	competition by cortisol for antibody binding [1]	anti-cortisol antibody binding [2]	competition with IFN-41 expressing phage for binding to anti-γ-interferon antibody [4]	further results
ACA 20 (1): phagotope expressing peptide with high anti-cortisol antibody binding; probably clone of ACA-20 (YFTPVFINPTQV)	overlapping, dose-response competitive binding curves	comparatively high anti-cortisol antibody binding	–	–
ACA 20 (2): phagotope expressing peptide with high anti-cortisol antibody binding; probably clone of ACA-20 (YFTPVFINPTQV)	overlapping, dose-response competitive binding curves	comparatively high anti-cortisol antibody binding	–	–
SQYENNH (CSQYENNHC; listed as Homo sapiens) [IFN-28]	–	–	–	competition for binding to anti-gamma-interferon antibody [3]: graded competition
TQYEQHY (CTQYEQHYC; listed as Homo sapiens) [IFN-41]	–	–	competed	–
TQYSQQM (CSQYSQLYC) [IFN-19]	–	–	competed	–
YFTPVFINPTQV (listed as Homo sapiens) [ACA-20, control peptide in the gamma-interferon assay]	–	–	did not compete	–
